What all share (assay type): functional
The subject of one test is Staphylococcus aureus. As to the kind of experiment: Antimicrobial activity against Staphylococcus aureus ATCC 12600 after 17 to 20 hrs by serial dilution method.
A further test concerns Candida albicans. In words: Antimicrobial activity against Candida albicans ATCC 14053 after 17 to 20 hrs by serial dilution method.
The next test relates to Escherichia coli. As to the kind of experiment: Antimicrobial activity against Escherichia coli ATCC 25922 after 17 to 20 hrs by serial dilution method.

Experimental findings from ChEMBL document CHEMBL3286360, “Tuning the antimicrobial pharmacophore to enable discovery of short lipopeptides with multiple modes of action” (Eur J Med Chem, 2014) are described below.

SMILES strings stand for the structures. Converted amounts (≈) assume the structure as drawn. Where a SMILES comes first, the peptide text is derived from it. The star is where a group is joined. Stearoyl = CCCCCCCCCCCCCCCCCC(=O)*; Palmitoyl = CCCCCCCCCCCCCCCC(=O)*; Myristoyl = CCCCCCCCCCCCCC(=O)*; Lauroyl = CCCCCCCCCCCC(=O)*; Decanoyl = CCCCCCCCCC(=O)*; Octanoyl = CCCCCCCC(=O)*; Hexanoyl = CCCCCC(=O)*

By MIC is commonly meant the lowest concentration that inhibits growth of the organism. `CCCCCCCCCCCCCC(=O)N[C@@H](CCCCN)C(=O)N[C@@H](CCCCN)C(=O)N[C@H](C(=O)N[C@@H](CCCNC(=N)N)C(=O)N[C@@H](Cc1c[nH]c2ccccc12)C(=O)N[C@@H](CCCNC(=N)N)C(N)=O)[C@@H](C)CC` (Myristoyl-KKIRWR-NH2): the MIC is 3.9 µg/mL (≈ 3.56 µM) with Staphylococcus aureus, above 62.5 µg/mL against Candida albicans and 7.8 µg/mL (≈ 7.12 µM) in the test with Escherichia coli.

`CCCCCCCCCCCCCCCCCC(=O)N[C@@H](CCCCN)C(=O)N[C@H](C(=O)N[C@@H](CCCNC(=N)N)C(=O)N[C@@H](Cc1c[nH]c2ccccc12)C(=O)N[C@@H](Cc1c[nH]c2ccccc12)C(=O)N[C@@H](CCCNC(=N)N)C(N)=O)[C@@H](C)CC` (Stearoyl-KIRWWR-NH2): the results for the MIC in the test with Staphylococcus aureus, with Candida albicans and against Escherichia coli were above 31.2 µg/mL, above 62.5 µg/mL and above 31.2 µg/mL, respectively.

As to `CCCCCCCCCCCCCC(=O)N[C@@H](CCCNC(=N)N)C(=O)N[C@H](C(=O)N[C@@H](CCCCN)C(=O)N[C@@H](Cc1c[nH]c2ccccc12)C(=O)N[C@@H](Cc1c[nH]c2ccccc12)C(=O)N[C@@H](CCCCN)C(N)=O)[C@@H](C)CC` (Myristoyl-RIKWWK-NH2), the MIC in the test on Staphylococcus aureus is 7.8 µg/mL (≈ 6.93 µM); against Candida albicans it was above 62.5 µg/mL; in the test on Escherichia coli, 15.6 µg/mL (≈ 13.9 µM).

For the compound `CCCCCCCCCC(=O)N[C@@H](CCCCN)C(=O)N[C@@H](CCCCN)C(=O)N[C@@H](Cc1c[nH]c2ccccc12)C(=O)N[C@@H](Cc1c[nH]c2ccccc12)C(N)=O` (Decanoyl-KKWW-NH2), the values for the MIC in the test on Staphylococcus aureus, in the test on Candida albicans and against Escherichia coli were 3.9 µg/mL (≈ 4.87 µM), 31.2 µg/mL (≈ 39 µM) and 7.8 µg/mL (≈ 9.75 µM), respectively.

Regarding `CCCCCCCCCCCCCC(=O)N[C@@H](CCCNC(=N)N)C(=O)N[C@@H](Cc1c[nH]c2ccccc12)C(=O)N[C@@H](CCCNC(=N)N)C(N)=O` (Myristoyl-Arg-Trp-Arg-NH2), the MIC in the test on Staphylococcus aureus is 15.6 µg/mL (≈ 21.5 µM); in the test on Candida albicans it was above 62.5 µg/mL; against Escherichia coli, 15.6 µg/mL (≈ 21.5 µM).

Take `CCCCCCCCCC(=O)N[C@@H](CCCCN)C(=O)N[C@@H](Cc1c[nH]c2ccccc12)C(=O)N[C@@H](Cc1c[nH]c2ccccc12)C(=O)N[C@@H](CCCCN)C(N)=O` (Decanoyl-KWWK-NH2): the MIC in the test with Staphylococcus aureus was found to be 7.8 µg/mL (≈ 9.75 µM); against Candida albicans it was 31.2 µg/mL (≈ 39 µM); with Escherichia coli it was 15.6 µg/mL (≈ 19.5 µM).

With `CCCCCCCCCCCCCCCCCC(=O)N[C@@H](CCCCN)C(=O)N[C@@H](CCCCN)C(=O)N[C@@H](Cc1c[nH]c2ccccc12)C(=O)N[C@@H](CCCCN)C(N)=O` (Stearoyl-KKWK-NH2), the MIC with Staphylococcus aureus, in the test on Candida albicans and with Escherichia coli was 31.2 µg/mL (≈ 36.5 µM) throughout.

Consider `CCCCCCCCCCCCCC(=O)N[C@@H](CCCCN)C(=O)N[C@@H](CCCCN)C(=O)N[C@@H](Cc1c[nH]c2ccccc12)C(=O)N[C@@H](CCCCN)C(N)=O` (Myristoyl-KKWK-NH2), for which the MIC was 3.9 µg/mL (≈ 4.89 µM) in the test on Staphylococcus aureus, above 62.5 µg/mL against Candida albicans and 7.8 µg/mL (≈ 9.77 µM) in the test on Escherichia coli.

Regarding `CCCCCCCCCC(=O)N[C@@H](CCCCN)C(=O)N[C@@H](CCCCN)C(=O)N[C@H](C(=O)N[C@@H](CCCNC(=N)N)C(=O)N[C@@H](Cc1c[nH]c2ccccc12)C(=O)N[C@@H](CCCNC(=N)N)C(N)=O)[C@@H](C)CC` (Decanoyl-KKIRWR-NH2), the MIC against Staphylococcus aureus is 7.8 µg/mL (≈ 7.5 µM); against Candida albicans, above 62.5 µg/mL; against Escherichia coli, 7.8 µg/mL (≈ 7.5 µM).

With `CCCCCCCCCCCC(=O)N[C@@H](CCCNC(=N)N)C(=O)N[C@@H](CCCCN)C(=O)N[C@@H](Cc1c[nH]c2ccccc12)C(=O)N[C@@H](Cc1c[nH]c2ccccc12)C(=O)N[C@@H](CCCCN)C(N)=O` (Lauroyl-RKWWK-NH2), the MIC with Staphylococcus aureus and in the test with Escherichia coli was 7.8 µg/mL (≈ 7.92 µM) throughout.

Turning to `CCCCCCCCCC(=O)N[C@@H](CCCNC(=N)N)C(=O)N[C@@H](Cc1c[nH]c2ccccc12)C(=O)N[C@@H](CCCNC(=N)N)C(N)=O` (Decanoyl-Arg-Trp-Arg-NH2), the MIC against Staphylococcus aureus was 7.8 µg/mL (≈ 11.6 µM); against Candida albicans it was above 62.5 µg/mL; in the test with Escherichia coli, 15.6 µg/mL (≈ 23.3 µM).

For `CCCCCCCCCCCCCCCCCC(=O)N[C@@H](CCCNC(=N)N)C(=O)N[C@@H](CCCCN)C(=O)N[C@@H](Cc1c[nH]c2ccccc12)C(=O)N[C@@H](Cc1c[nH]c2ccccc12)C(=O)N[C@@H](CCCCN)C(N)=O` (Stearoyl-RKWWK-NH2), the MIC is 31.2 µg/mL (≈ 29.2 µM) in the test with Staphylococcus aureus, above 62.5 µg/mL against Candida albicans and 125 µg/mL (≈ 117 µM) against Escherichia coli.

For the compound `CCCCCCCCCCCCCCCCCC(=O)N[C@@H](CCCCN)C(=O)N[C@@H](Cc1c[nH]c2ccccc12)C(=O)N[C@@H](CCCCN)C(N)=O` (Stearoyl-Lys-Trp-Lys-NH2), the MIC is 31.2 µg/mL (≈ 43 µM) in the test on Staphylococcus aureus, above 62.5 µg/mL with Candida albicans and above 31.2 µg/mL in the test on Escherichia coli.

For `CCCCCCCCCCCCCCCCCC(=O)N[C@@H](CCCCN)C(=O)N[C@@H](CCCCN)C(=O)N[C@H](C(=O)N[C@@H](CCCNC(=N)N)C(=O)N[C@@H](Cc1c[nH]c2ccccc12)C(=O)N[C@@H](CCCNC(=N)N)C(N)=O)[C@@H](C)CC` (Stearoyl-KKIRWR-NH2), the MIC against Staphylococcus aureus was 15.6 µg/mL (≈ 13.5 µM); in the test on Candida albicans it was above 62.5 µg/mL; with Escherichia coli, above 31.2 µg/mL.

On to `CCCCCCCCCC(=O)N[C@@H](CCCCN)C(=O)N[C@H](C(=O)N[C@@H](CCCCN)C(=O)N[C@@H](CCCNC(=N)N)C(=O)N[C@@H](Cc1c[nH]c2ccccc12)C(=O)N[C@@H](Cc1c[nH]c2ccccc12)C(=O)N[C@@H](CCCNC(=N)N)C(N)=O)[C@@H](C)CC` (Decanoyl-KIKRWWR-NH2), for which the MIC against Staphylococcus aureus is 3.9 µg/mL (≈ 3.18 µM); against Candida albicans, above 62.5 µg/mL; against Escherichia coli, 7.8 µg/mL (≈ 6.36 µM).

On to `CCCCCCCCCCCCCCCCCC(=O)N[C@@H](CCCNC(=N)N)C(=O)N[C@H](C(=O)N[C@@H](CCCCN)C(=O)N[C@@H](Cc1c[nH]c2ccccc12)C(=O)N[C@@H](CCCCN)C(N)=O)[C@@H](C)CC` (Stearoyl-RIKWK-NH2), for which the results for the minimum inhibitory concentration (MIC) in the test with Staphylococcus aureus, in the test with Candida albicans and against Escherichia coli were above 31.2 µg/mL, above 62.5 µg/mL and above 31.2 µg/mL, respectively.

With `CCCCCCCCCCCCCC(=O)N[C@@H](CCCCN)C(=O)N[C@H](C(=O)N[C@@H](CCCCN)C(=O)N[C@@H](CCCNC(=N)N)C(=O)N[C@@H](Cc1c[nH]c2ccccc12)C(=O)N[C@@H](CCCNC(=N)N)C(N)=O)[C@@H](C)CC` (Myristoyl-KIKRWR-NH2), the MIC is 3.9 µg/mL (≈ 3.56 µM) against Staphylococcus aureus, above 62.5 µg/mL against Candida albicans and 15.6 µg/mL (≈ 14.2 µM) in the test on Escherichia coli.

As for `CCCCCCCCCCCCCC(=O)N[C@@H](CCCNC(=N)N)C(=O)N[C@@H](CCCCN)C(=O)N[C@@H](Cc1c[nH]c2ccccc12)C(=O)N[C@@H](Cc1c[nH]c2ccccc12)C(=O)N[C@@H](CCCCN)C(N)=O` (Myristoyl-RKWWK-NH2), the MIC with Staphylococcus aureus is 7.8 µg/mL (≈ 7.7 µM); with Candida albicans, above 62.5 µg/mL; in the test on Escherichia coli, 15.6 µg/mL (≈ 15.4 µM).

As to `CCCCCCCCCCCCCCCC(=O)N[C@@H](CCCNC(=N)N)C(=O)N[C@@H](CCCCN)C(=O)N[C@@H](Cc1c[nH]c2ccccc12)C(=O)N[C@@H](Cc1c[nH]c2ccccc12)C(=O)N[C@@H](CCCCN)C(N)=O` (Palmitoyl-RKWWK-NH2), the MIC against Staphylococcus aureus and in the test with Escherichia coli was 31.2 µg/mL (≈ 30 µM) throughout.

Take `CCCCCCCC(=O)N[C@@H](CCCNC(=N)N)C(=O)N[C@@H](CCCCN)C(=O)N[C@@H](Cc1c[nH]c2ccccc12)C(=O)N[C@@H](Cc1c[nH]c2ccccc12)C(=O)N[C@@H](CCCCN)C(N)=O` (Octanoyl-RKWWK-NH2): the MIC is 15.6 µg/mL (≈ 16.8 µM) against Staphylococcus aureus and 62.5 µg/mL (≈ 67.3 µM) against Escherichia coli.

As for `CCCCCC(=O)N[C@@H](CCCNC(=N)N)C(=O)N[C@@H](CCCCN)C(=O)N[C@@H](Cc1c[nH]c2ccccc12)C(=O)N[C@@H](Cc1c[nH]c2ccccc12)C(=O)N[C@@H](CCCCN)C(N)=O` (Hexanoyl-RKWWK-NH2), the figures for the MIC in the test on Staphylococcus aureus and with Escherichia coli were 31.2 µg/mL (≈ 34.7 µM) and above 62.5 µg/mL, respectively.
